Data on 24 compounds can be found in patent publication US9661850B2, “Methods of soil pest control” (Syngenta Participations AG, priority 2012, dated 2017).

Common to all, as to assay type: in vivo
In data set [1] the test system is Diabrotica balteata (Corn Rootworm). Put plainly: Diabrotica balteata seed treatment test, larval mortality. The note with it: treated corn seeds, L3 larvae, 6 days incubation. As for the experimental part:
Diabrotica Balteata (Corn Rootworm)
Treated corn seeds are sown in a 350 ml pot filled with soil. Two weeks after sowing corn seedlings are infested with L3 larvae of Diabrotica balteata. After an incubation period of 6 days survived larvae are counted.

The subject of data set [2] is Agriotes sp. (Wireworms). Kind of data set: Agriotes sp. (wireworms) seed treatment test. Conditions: treated corn seeds, 1 mg/seed, 14 days incubation. Here is the method: Treated corn seeds are sown in a 350 ml pot filled with soil. One week after sowing corn seedlings are infested with wireworms. After an incubation period of 14 days healthy and affected larvae (intoxicated, moribund, dead) are counted.

Data set [3] deals with Agriotes sp. (Wireworms). Kind of data set: Agriotes sp. (wireworms) drench soil test with maize seedlings. The note with it: 14 days after treatment. Here is the method: Plastic beakers are prepared with 100 ml drench soil. Afterwards 12.5 ml compound solution is mixed in each plastic beaker and three maize seedlings are added. At the same day five wireworms are placed into each plastic beaker and these are covered up with a lid. Fourteen days after treatment the number of dead and moribund wireworms are evaluated. Wireworms are assessed as moribund if they were not able to bury into the soil in one hour after having been put onto the soil surface.

Data set [4] has as its system Diabrotica balteata (Corn Rootworm). Put plainly: Diabrotica balteata in-furrow application, plant damage on maize. The note with it: L2 larvae, 6 days after infestation. As for the experimental part: (§1) Diabrotica Balteata (Corn Rootworm):
(§2) Plastic boxes (17×27×22 cm) are filled with 8 L of drench soil and 6 maize seeds are sown into a furrow. 10 ml of spray solution are applied with a hand sprayer into the furrow on the planted seeds and the furrow is closed afterwards. Two weeks after sowing each box is infested with 15 Diabrotica balteata L2 larvae. 6 days after infestation the plant damage is assessed. Plants are considered as either damaged or healthy. Dead plants, plants with hollow stems or entry holes are considered as damaged. The test is carried out with five replicates (boxes) per treatment. For in-furrow application the control is replicated five times with the application of water.
(§3) As six seeds are used per replicate, the total amount of active ingredient applied in furrow is six times the rate per seed in the seed treatment test.

Data set [5] shares this test system. Kind of data set: Diabrotica balteata seed treatment, plant damage on maize. The note with it: L2 larvae, 6 days after infestation. As for the experimental part:
as §1, §2
For the assessment as seed treatment 6 treated seeds are planted 0.5 cm deep into the soil. Exactly the same setup is used as with the in furrow treatment described above except that no spray solution is applied. For seed treatment the control is replicated five times without seed coating.
as §3

On to `Cc1cc(C2=NOC(c3cc(Cl)c(Cl)c(Cl)c3)(C(F)(F)F)C2)ccc1C(=O)NC1CON(CC(F)(F)F)C1=O` (mixture of isomers) [Compound A1], for which, in data set [1] (0.3 mg/seed), the “% Larval mortality” value was determined as 87%.
In the case of `Cc1cc(C2=NOC(c3cc(Cl)cc(Cl)c3)(C(F)(F)F)C2)ccc1C(=O)NC1CON(C)C1=O` (mixture of isomers) [Compound A2], in data set [1] (0.3 mg/seed), the “% Larval mortality” value was 96%.
`CCN1OCC(NC(=O)c2ccc(C3=NOC(c4cc(Cl)c(F)c(Cl)c4)(C(F)(F)F)C3)cc2C)C1=O` (mixture of isomers) [Compound A5]: the “% Larval mortality” value in data set [1] (0.3 mg/seed) was 96%.
Take `Cc1cc(C2=NOC(c3cc(Cl)cc(Cl)c3)(C(F)(F)F)C2)ccc1C(=O)NC1CON(CC(F)F)C1=O` (mixture of isomers) [Compound A6]: in data set [1] (0.3 mg/seed), the “% Larval mortality” value came to 87%.
For the compound `Cc1cc(C2=NOC(c3cc(Cl)cc(Cl)c3)(C(F)(F)F)C2)ccc1C(=O)NC1CON(CC(F)(F)F)C1=O` (mixture of isomers) [Compound A8], the “% Mortality and moribund/intoxicated” value in the data set with Agriotes sp. (Wireworms) [2] was found to be 100%. Further, the “% Larval mortality” value in data set [1] (0.3 mg/seed) was 79%.
Regarding `CCN1OCC(NC(=O)c2ccc(C3=NOC(c4cc(Cl)cc(Cl)c4)(C(F)(F)F)C3)cc2C)C1=O` (mixture of isomers) [Compound A9], the “% Mortality and moribund/intoxicated” value with Agriotes sp. (Wireworms) [2] turned out to be 25%. Further, the “% Moribund & dead” value with Agriotes sp. (Wireworms) [3] (application rate 0.8 ppm) is listed as 50%; in the data set with Agriotes sp. (Wireworms) [3] (application rate 3 ppm), 75%; in the data set on Agriotes sp. (Wireworms) [3] (application rate 12.5 ppm) it was 100%.
For the compound `CCN1OCC(NC(=O)c2ccc(C3=NOC(c4cc(C(F)(F)F)c(Cl)c(C(F)(F)F)c4)(C(F)(F)F)C3)cc2C)C1=O` (mixture of isomers) [Compound A15], the “% Larval mortality” value in data set [1] (0.3 mg/seed) turned out to be 100%.
With `CCN1OCC(NC(=O)c2ccc(C3=NOC(c4cc(F)cc(Cl)c4)(C(F)(F)F)C3)cc2C)C1=O` (mixture of isomers) [Compound A22], in data set [1] (1 mg/seed), the “% Larval mortality” value stood at 92%.
For `CCN1OCC(NC(=O)c2ccc(C3=NOC(c4cc(Cl)c(Cl)c(Cl)c4)(C(F)(F)F)C3)cc2C)C1=O` (mixture of isomers) [Compound A23], in data set [1] (1 mg/seed), the “% Larval mortality” value is 100%.
Turning to `CCN1OCC(NC(=O)c2ccc(C3=NCC(c4cc(Cl)c(Cl)c(Cl)c4)(C(F)(F)F)C3)cc2C)C1=O` (racemic) [Compound C3], the “% Larval mortality” value in data set [1] (1 mg/seed) came out at 100%.
With `Cc1cc(N2CCC(c3cc(Cl)cc(Cl)c3)(C(F)(F)F)C2)ccc1C(=O)NC1CON(CC(F)(F)F)C1=O` (racemic) [Compound D1], the “% Larval mortality” value in data set [1] (0.3 mg/seed) was 83%.
For `Cc1cc(C2=NO[C@@](c3cc(Cl)cc(Cl)c3)(C(F)(F)F)C2)ccc1C(=O)N[C@@H]1CON(CC(F)(F)F)C1=O` [Compound 1], the “Reduction in plant damage compared to control (in-furrow application)” value in data set [4] (0.1 mg AI per seed) is given as 67%; in data set [4] (0.5 mg AI per seed) it was 95%. The “Reduction in plant damage compared to control (seed treatment)” value in data set [5] (0.1 mg AI per seed) is recorded as 25%; in data set [5] (0.5 mg AI per seed), 50%.
With `CCN1OC[C@@H](NC(=O)c2ccc(C3=NO[C@@](c4cc(Cl)c(F)c(Cl)c4)(C(F)(F)F)C3)cc2C)C1=O` [Compound 2], the “Reduction in plant damage compared to control (in-furrow application)” value in data set [4] (0.1 mg AI per seed) is 95%; in data set [4] (0.5 mg AI per seed), 91%. Besides, the “Reduction in plant damage compared to control (seed treatment)” value in data set [5] (0.1 mg AI per seed) came out at 35%; in data set [5] (0.5 mg AI per seed), 75%.
For the compound `CCN1OC[C@@H](NC(=O)c2ccc(C3=NO[C@@](c4cc(Cl)cc(Br)c4)(C(F)(F)F)C3)cc2C)C1=O` [Compound A11], the “% Larval mortality” value in data set [1] (1 mg/seed) is recorded as 100%.
`CCN1OC[C@@H](NC(=O)c2ccc(C3=NO[C@@](c4cc(Cl)cc(C(F)(F)F)c4)(C(F)(F)F)C3)cc2C)C1=O` [Compound A12]: the “% Larval mortality” value in data set [1] (0.3 mg/seed) amounted to 88%.
Take `Cc1cc(C2=NO[C@@](c3cc(Cl)cc(Cl)c3)(C(F)(F)F)C2)ccc1C(=O)N[C@@H]1CON(CC(F)F)C1=O` [Compound A14]: in data set [1] (1 mg/seed), the “% Larval mortality” value is listed as 100%.
Consider `Cc1cc(C2=NO[C@@](c3cc(Cl)cc(Cl)c3)(C(F)(F)F)C2)ccc1C(=O)N[C@@H]1CON(CC(F)(F)F)C1=O` [Compound A16], for which, in the data set with Agriotes sp. (Wireworms) [2], the “% Mortality and moribund/intoxicated” value was found to be 100%. In addition, the “% Moribund & dead” value in the data set on Agriotes sp. (Wireworms) [3] (application rate 0.8 ppm), with Agriotes sp. (Wireworms) [3] (application rate 3 ppm) and with Agriotes sp. (Wireworms) [3] (application rate 12.5 ppm) was 100% in each case. Moreover, the “% Larval mortality” value in data set [1] (1 mg/seed) worked out at 100%.
For the compound `CCN1OC[C@@H](NC(=O)c2ccc(C3=NO[C@@](c4cc(Cl)cc(Cl)c4)(C(F)(F)F)C3)cc2C)C1=O` [Compound A17], in the data set on Agriotes sp. (Wireworms) [2], the “% Mortality and moribund/intoxicated” value was 80%. For the same compound, the “% Moribund & dead” value in the data set on Agriotes sp. (Wireworms) [3] (application rate 0.8 ppm), in the data set with Agriotes sp. (Wireworms) [3] (application rate 3 ppm) and with Agriotes sp. (Wireworms) [3] (application rate 12.5 ppm) was 100% throughout. Moreover, the “% Larval mortality” value in data set [1] (1 mg/seed) is listed as 83%.
For `CCN1OC[C@@H](NC(=O)c2ccc(C3=NO[C@@](c4cc(Cl)c(F)c(Cl)c4)(C(F)(F)F)C3)cc2C)C1=O` [Compound A18], the “% Larval mortality” value in data set [1] (0.3 mg/seed) was 96%.
`CCN1OC[C@@H](NC(=O)c2ccc(C3=NO[C@@](c4cc(Cl)c(Cl)c(Cl)c4)(C(F)(F)F)C3)cc2C)C1=O` [Compound A19]: in data set [1] (1 mg/seed), the “% Larval mortality” value was determined as 100%.
Regarding `Cc1cc(C2=NO[C@@](c3cc(Cl)c(F)c(Cl)c3)(C(F)(F)F)C2)ccc1C(=O)N[C@@H]1CON(CC(F)(F)F)C1=O` [Compound A20], in data set [1] (1 mg/seed), the “% Larval mortality” value was determined as 100%.
On the same count and under the same terms, for `Cc1cc(C2=NO[C@@](c3cc(Cl)c(Cl)c(Cl)c3)(C(F)(F)F)C2)ccc1C(=O)N[C@@H]1CON(CC(F)(F)F)C1=O` [Compound A21] the value was 100%; for `Cc1cc(C2=NCC(c3cc(Cl)cc(Cl)c3)(C(F)(F)F)C2)ccc1C(=O)NC1CON(CC(F)(F)F)C1=O` (stereo not drawn) [Compound C1], 100%.
On to `CCN1OCC(NC(=O)c2ccc(C3=NCC(c4cc(Cl)cc(Cl)c4)(C(F)(F)F)C3)cc2C)C1=O` (stereo not drawn) [Compound C2], for which, in data set [1] (1 mg/seed), the “% Larval mortality” value came to 50%.
